Experimental findings from patent US6815447B2, “N-type calcium channel antagonists for the treatment of pain” (Astrazeneca AB, priority 2000, dated 2004) are described below.

SMILES strings stand for the structures.

Chain of N-type calcium channel (Q00975 whole entry): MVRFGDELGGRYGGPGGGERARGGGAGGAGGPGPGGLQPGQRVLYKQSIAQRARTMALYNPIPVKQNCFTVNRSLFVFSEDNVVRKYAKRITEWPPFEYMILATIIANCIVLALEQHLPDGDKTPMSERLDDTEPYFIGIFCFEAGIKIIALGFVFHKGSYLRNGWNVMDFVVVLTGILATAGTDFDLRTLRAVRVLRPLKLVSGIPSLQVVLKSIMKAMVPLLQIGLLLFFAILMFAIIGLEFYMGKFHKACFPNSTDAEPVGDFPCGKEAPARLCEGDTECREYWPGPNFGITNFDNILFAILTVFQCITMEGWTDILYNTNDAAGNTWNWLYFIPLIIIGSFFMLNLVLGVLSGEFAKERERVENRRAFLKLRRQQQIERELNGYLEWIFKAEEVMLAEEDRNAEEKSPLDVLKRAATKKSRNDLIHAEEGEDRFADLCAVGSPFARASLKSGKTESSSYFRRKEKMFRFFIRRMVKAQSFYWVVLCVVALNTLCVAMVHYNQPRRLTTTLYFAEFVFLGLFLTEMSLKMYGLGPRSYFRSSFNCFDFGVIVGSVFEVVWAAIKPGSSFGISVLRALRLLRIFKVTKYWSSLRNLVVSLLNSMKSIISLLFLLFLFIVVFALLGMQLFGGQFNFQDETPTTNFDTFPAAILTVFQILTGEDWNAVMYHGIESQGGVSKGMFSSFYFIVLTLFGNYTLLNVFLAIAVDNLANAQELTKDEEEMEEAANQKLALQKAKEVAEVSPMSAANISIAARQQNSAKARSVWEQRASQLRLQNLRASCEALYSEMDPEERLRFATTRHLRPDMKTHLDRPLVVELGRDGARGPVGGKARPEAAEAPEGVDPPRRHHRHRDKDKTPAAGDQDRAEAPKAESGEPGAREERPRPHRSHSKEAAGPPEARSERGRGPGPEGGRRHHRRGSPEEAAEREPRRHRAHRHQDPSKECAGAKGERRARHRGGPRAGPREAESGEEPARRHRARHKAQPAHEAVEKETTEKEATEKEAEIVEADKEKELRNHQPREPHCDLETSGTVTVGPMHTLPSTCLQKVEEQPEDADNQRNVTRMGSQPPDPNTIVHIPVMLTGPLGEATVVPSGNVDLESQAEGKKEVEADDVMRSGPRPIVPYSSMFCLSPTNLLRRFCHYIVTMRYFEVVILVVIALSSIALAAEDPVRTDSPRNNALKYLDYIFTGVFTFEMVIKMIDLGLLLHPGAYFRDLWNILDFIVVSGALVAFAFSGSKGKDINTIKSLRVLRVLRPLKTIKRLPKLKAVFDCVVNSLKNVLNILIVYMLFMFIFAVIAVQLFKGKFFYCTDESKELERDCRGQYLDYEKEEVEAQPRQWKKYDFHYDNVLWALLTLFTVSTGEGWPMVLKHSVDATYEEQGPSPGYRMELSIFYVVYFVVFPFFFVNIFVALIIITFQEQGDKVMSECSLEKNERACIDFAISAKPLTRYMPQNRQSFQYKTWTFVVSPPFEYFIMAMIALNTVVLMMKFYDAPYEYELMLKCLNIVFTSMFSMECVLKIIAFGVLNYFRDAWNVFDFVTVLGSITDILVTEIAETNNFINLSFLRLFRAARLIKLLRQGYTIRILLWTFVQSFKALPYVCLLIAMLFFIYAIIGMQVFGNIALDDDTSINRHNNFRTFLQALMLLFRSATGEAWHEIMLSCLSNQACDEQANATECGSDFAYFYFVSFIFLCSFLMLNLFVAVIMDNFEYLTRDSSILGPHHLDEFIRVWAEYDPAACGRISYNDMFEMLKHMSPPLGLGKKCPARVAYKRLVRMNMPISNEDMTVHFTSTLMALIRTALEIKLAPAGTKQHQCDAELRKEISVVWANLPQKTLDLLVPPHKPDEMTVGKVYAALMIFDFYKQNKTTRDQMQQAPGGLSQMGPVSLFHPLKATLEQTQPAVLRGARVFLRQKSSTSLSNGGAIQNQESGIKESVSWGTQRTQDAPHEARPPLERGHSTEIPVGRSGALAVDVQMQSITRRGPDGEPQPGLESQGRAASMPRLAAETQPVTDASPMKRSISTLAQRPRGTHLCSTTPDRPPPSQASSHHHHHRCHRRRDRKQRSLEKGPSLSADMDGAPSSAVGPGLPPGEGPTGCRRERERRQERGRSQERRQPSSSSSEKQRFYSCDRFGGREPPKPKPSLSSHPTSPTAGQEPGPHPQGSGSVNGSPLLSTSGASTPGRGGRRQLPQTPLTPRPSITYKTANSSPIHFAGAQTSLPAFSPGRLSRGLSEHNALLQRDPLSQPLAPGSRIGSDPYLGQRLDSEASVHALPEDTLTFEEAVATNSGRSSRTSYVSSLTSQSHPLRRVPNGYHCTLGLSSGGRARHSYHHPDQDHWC
Chain of N-type calcium channel (P54284 whole entry partner): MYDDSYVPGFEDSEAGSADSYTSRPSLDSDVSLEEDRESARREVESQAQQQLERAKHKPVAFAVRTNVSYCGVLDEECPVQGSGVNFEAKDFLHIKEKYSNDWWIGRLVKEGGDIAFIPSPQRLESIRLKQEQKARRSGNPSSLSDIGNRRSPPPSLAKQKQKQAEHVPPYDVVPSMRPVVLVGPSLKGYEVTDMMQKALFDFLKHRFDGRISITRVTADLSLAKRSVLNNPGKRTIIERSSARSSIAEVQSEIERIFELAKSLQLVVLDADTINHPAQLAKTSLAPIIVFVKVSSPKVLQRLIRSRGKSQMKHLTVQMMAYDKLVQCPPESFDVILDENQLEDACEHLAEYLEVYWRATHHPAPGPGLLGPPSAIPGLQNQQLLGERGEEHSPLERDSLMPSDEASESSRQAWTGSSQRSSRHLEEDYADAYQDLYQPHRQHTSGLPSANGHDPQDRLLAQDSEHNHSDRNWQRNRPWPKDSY
Chain of N-type calcium channel (P54289 25-956 partner limits assumed): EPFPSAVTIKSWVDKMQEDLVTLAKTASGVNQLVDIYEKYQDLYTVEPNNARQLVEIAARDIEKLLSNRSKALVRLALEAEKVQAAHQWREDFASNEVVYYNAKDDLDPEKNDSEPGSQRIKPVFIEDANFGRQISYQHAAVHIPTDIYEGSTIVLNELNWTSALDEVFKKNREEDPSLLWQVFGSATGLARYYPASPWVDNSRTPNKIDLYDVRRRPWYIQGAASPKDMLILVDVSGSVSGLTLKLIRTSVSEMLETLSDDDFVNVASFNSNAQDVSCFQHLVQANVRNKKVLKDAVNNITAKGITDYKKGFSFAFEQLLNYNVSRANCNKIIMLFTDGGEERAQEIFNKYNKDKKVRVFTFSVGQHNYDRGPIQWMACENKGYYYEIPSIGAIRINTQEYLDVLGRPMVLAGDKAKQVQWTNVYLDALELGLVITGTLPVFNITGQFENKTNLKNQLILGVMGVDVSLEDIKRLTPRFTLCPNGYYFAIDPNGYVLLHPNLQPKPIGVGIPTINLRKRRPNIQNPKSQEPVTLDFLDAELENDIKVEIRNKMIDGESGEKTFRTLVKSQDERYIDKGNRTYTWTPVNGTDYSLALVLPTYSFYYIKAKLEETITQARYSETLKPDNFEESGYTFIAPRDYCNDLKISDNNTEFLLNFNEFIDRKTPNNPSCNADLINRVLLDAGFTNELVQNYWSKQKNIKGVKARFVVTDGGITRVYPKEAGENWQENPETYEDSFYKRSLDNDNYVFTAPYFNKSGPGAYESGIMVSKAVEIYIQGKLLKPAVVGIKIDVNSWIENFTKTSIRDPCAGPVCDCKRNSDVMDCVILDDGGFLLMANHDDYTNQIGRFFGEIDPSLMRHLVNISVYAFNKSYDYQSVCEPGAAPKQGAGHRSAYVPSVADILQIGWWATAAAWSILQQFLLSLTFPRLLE
Chain of N-type calcium channel (P54289 957-1103 partner limits assumed): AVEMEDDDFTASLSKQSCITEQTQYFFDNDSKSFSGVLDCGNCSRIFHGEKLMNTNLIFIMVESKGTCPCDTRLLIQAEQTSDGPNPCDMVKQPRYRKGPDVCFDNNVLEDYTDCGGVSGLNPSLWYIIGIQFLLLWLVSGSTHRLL

The experiment concerns the target N-type calcium channel (Homo sapiens, UniProt Q00975). The experiment is described as follows: N-channel FLIPR assay (inhibition of K+-evoked calcium flux in neuronally differentiated IMR32 cells). It counts as cell-based. The conditions noted are these: 80 mM K+ stimulus, read-out: IC50 for the N-type calcium channel, as measured by the FLIPR assay. (Calcium flux is commonly read through the fluorescence of an indicator in the cells.)
Broadly, the IC50 is the midpoint of a concentration-inhibition curve. For the molecule `COc1ccccc1-c1cc(Nc2ccc3nc(-c4ccccc4)cc(N)c3c2)nc(N)n1` [Example 75, N6-[2-Amino-6-(2-methoxy-phenyl)-pyrimidin-4-yl]-2-phenyl-quinoline-4,6-diamine], the IC50 turned out to be 10.5 µM. As for `Nc1nc(Nc2ccc3nc(-c4ccccc4)cc(N)c3c2)cc(C(F)(F)F)n1` [Example 4, N6-(2-Amino-6-trifluoromethyl-pyrimidin-4-yl)-2-phenyl-quinoline-4,6-diamine], the IC50 is 3.57 µM. For the molecule `Cc1cc(N)c2cc(Nc3cc(-c4cccc(F)c4)nc(N)n3)ccc2n1` [Example 74, N6-[2-Amino-6-(3-fluoro-phenyl)-pyrimidin-4-yl]-2-methyl-quinoline-4,6-diamine], the IC50 was 3.56 µM. To `Cc1cc(N)c2cc(Nc3cc(-c4ccccc4F)nc(N)n3)ccc2n1` [Example 66, N6-[2-Amino-6-(2-fluoro-phenyl)-pyrimidin-4-yl]-2-methyl-quinoline-4,6-diamine] belongs 2.37 µM.
